# According to patent publication US7074789B2, “Kinase inhibitors” (Amgen Inc., priority 1999, dated 2006):
# Key:
# Assay type in all cases: biochemical
# Lck = target: T1, Lck (Homo sapiens, UniProt P06239); test: Kinase inhibition assay (33P transfer), Lck; details: Table 3; read-out: Lck-1
# T1 construct: Kinases are expressed as either kinase domains or full length constructs; made in house
# In short: (§1)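 GST/His-tagged kinase (domain or full length; E. coli or baculovirus) + [33P]ATP on plates coated with poly(Glu,Tyr) 4:1 or poly(Arg,Ser) 3:1; incubate, wash 0.5% H3PO4, add scintillant, count.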
# Lyn = target: T2, Lyn (Homo sapiens, UniProt P07948); test: Kinase inhibition assay (33P transfer), Lyn; details: Table 6, Lyn-1 kinase inhibition class
# T2 construct: Kinases are expressed as either kinase domains or full length constructs; made in house
# In short: (§2)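 Activity read as 33P incorporation from ATP into poly(Glu,Tyr) 4:1 or poly(Arg,Ser) 3:1 substrate bound to microtiter plates, measured by scintillation after acid washing. Enzymes were affinity-purified GST or polyHis fusions (kinase domain or full length) from E. coli or baculovirus; IC50 = 50% reduction in labelled phosphate.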
# Src = target: T3, Src (Homo sapiens, UniProt P12931); test: Kinase inhibition assay (33P transfer), Src; details: Table 6, Src-1 kinase inhibition class
# T3 construct: Kinases are expressed as either kinase domains or full length constructs; made in house
# In short: as §2
# Fyn = target: T4, Fyn (Homo sapiens, UniProt P06241); test: Kinase inhibition assay (33P transfer), Fyn; details: read-out: Fyn-1
# T4 construct: Kinases are expressed as either kinase domains or full length constructs; made in house
# In short: as §2
# Zap-70 = target: T5, Zap-70 (Homo sapiens, UniProt P43403); test: Kinase inhibition assay (33P transfer), Zap-70; details: Table 3; read-out: Zap-1
# T5 construct: Kinases are expressed as either kinase domains or full length constructs; made in house
# T5 sequence (P43403 1-619): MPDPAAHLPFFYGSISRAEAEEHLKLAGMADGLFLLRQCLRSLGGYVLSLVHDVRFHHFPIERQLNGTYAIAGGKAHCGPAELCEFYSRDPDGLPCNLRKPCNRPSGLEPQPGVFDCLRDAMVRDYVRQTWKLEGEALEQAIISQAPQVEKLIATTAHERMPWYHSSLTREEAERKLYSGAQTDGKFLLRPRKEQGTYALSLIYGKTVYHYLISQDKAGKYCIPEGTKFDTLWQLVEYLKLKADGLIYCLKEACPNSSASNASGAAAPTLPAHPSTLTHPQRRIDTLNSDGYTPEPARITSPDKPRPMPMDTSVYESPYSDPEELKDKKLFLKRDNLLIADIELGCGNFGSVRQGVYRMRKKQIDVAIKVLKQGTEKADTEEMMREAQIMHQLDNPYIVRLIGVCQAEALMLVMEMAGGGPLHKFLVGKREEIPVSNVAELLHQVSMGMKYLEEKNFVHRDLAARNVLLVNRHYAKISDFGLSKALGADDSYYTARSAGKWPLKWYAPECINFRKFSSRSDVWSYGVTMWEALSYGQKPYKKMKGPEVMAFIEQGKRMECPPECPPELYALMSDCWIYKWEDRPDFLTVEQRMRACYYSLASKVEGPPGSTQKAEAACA
# In short: as §1
# Itk = target: T6, Itk (Homo sapiens, UniProt Q08881); test: Kinase inhibition assay (33P transfer), Itk; details: Table 3; read-out: Itk-1
# T6 construct: Kinases are expressed as either kinase domains or full length constructs; made in house
# T6 sequence (Q08881 1-620): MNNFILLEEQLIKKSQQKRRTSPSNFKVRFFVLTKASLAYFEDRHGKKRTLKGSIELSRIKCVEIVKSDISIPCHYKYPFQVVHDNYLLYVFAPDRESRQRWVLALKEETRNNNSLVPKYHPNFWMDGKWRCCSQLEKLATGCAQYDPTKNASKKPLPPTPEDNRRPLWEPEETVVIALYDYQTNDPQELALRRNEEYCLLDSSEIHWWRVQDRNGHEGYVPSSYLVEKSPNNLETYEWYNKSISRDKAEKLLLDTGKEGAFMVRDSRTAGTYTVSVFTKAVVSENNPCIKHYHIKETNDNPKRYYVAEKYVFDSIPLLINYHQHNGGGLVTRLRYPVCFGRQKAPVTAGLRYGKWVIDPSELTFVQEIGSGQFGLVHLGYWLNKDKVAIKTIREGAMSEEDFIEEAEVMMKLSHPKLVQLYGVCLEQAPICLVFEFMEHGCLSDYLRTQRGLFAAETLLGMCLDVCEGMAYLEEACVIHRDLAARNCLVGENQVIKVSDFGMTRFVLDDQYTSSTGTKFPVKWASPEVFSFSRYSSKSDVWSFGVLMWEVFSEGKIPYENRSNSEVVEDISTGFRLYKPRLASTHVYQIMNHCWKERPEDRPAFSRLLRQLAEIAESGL
# In short: as §2
# Kdr = target: T7, Kdr (Homo sapiens, UniProt P35968); test: Kinase inhibition assay (33P transfer), Kdr; details: Table 3; read-out: KDR-1
# T7 construct: Kinases are expressed as either kinase domains or full length constructs; made in house
# In short: as §1
# c-Met = target: T8, c-Met (Homo sapiens, UniProt P08581); test: Kinase inhibition assay (33P transfer), c-Met; details: Table 2, kinase inhibition class; read-out: Met-1
# T8 construct: Kinases are expressed as either kinase domains or full length constructs; made in house
# In short: as §2
# IGFR-1 = target: T9, IGFR-1 (Homo sapiens, UniProt P08069); test: Kinase inhibition assay (33P transfer), IGFR-1; details: Table 2, kinase inhibition class
# T9 construct: Kinases are expressed as either kinase domains or full length constructs; made in house
# PDGFRB = target: T10, PDGFRB (Homo sapiens, UniProt P09619); test: Kinase inhibition assay (33P transfer), PDGFRB; details: read-out: PDGFRB-1
# T10 construct: Kinases are expressed as either kinase domains or full length constructs; made in house
# ErbB4 = target: T11, ErbB4 (Homo sapiens, UniProt Q15303); test: Kinase inhibition assay (33P transfer), ErbB4; details: read-out: ErbB4-1
# T11 construct: Kinases are expressed as either kinase domains or full length constructs; made in house
# FGFR1 = target: T12, FGFR1 (Homo sapiens, UniProt P11362); test: Kinase inhibition assay (33P transfer), FGFR1; details: read-out: FGFR1-1
# T12 construct: Kinases are expressed as either kinase domains or full length constructs; made in house
# T12 sequence (P11362 22-822, species assumed): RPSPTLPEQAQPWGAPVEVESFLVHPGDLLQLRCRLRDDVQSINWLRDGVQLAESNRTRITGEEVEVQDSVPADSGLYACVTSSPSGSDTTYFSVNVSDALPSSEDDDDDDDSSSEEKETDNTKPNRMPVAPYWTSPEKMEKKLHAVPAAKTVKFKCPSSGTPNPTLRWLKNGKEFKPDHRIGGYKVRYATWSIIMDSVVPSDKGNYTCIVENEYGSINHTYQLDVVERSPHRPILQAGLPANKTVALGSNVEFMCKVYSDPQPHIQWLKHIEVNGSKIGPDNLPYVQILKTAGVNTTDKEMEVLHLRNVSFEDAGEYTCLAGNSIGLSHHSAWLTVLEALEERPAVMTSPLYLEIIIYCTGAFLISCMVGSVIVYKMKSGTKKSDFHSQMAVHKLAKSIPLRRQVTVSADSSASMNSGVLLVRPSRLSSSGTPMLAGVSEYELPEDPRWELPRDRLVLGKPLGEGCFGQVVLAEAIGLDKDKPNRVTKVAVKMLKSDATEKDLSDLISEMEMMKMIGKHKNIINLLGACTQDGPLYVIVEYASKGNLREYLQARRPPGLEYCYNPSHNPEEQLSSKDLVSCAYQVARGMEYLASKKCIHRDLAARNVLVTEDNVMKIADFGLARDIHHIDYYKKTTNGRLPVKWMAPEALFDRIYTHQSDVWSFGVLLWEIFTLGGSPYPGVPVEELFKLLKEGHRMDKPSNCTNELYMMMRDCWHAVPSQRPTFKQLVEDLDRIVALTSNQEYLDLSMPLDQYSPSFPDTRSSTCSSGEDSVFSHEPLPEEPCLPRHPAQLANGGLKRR
# T9 sequence (P08069 31-1367): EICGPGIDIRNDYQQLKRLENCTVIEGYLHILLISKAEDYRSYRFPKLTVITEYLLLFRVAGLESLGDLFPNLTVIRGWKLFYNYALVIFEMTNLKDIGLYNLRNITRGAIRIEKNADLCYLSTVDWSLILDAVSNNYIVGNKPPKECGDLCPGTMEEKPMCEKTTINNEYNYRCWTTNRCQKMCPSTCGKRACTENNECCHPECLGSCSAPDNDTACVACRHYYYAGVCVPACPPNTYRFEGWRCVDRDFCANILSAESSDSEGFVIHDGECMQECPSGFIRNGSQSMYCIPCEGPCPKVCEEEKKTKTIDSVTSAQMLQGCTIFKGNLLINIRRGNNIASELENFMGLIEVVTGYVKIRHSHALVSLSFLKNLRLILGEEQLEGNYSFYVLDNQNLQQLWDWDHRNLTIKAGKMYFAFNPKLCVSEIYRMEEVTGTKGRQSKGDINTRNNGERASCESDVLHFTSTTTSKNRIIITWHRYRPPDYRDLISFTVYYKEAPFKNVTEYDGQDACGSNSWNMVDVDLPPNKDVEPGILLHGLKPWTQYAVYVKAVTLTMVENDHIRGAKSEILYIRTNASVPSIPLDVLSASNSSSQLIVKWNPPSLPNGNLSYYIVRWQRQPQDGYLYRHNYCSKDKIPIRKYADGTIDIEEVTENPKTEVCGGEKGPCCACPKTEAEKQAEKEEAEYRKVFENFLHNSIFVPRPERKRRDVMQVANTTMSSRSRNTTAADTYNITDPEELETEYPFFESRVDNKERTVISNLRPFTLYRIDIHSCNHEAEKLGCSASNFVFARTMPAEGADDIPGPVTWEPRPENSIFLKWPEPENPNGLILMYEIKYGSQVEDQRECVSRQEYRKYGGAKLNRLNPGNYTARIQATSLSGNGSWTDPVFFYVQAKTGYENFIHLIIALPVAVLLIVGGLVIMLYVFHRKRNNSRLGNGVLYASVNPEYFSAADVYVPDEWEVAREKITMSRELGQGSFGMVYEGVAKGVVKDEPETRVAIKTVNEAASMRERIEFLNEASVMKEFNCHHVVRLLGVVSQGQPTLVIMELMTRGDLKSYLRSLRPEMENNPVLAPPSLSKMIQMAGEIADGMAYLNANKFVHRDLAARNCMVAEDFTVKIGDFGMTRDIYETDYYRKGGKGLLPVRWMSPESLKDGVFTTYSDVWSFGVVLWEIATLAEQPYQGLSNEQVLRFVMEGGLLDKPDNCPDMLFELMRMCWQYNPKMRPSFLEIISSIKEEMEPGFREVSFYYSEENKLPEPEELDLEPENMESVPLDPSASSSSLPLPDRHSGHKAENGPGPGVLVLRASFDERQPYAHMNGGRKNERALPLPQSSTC
# T7 sequence (P35968 20-1356, species assumed): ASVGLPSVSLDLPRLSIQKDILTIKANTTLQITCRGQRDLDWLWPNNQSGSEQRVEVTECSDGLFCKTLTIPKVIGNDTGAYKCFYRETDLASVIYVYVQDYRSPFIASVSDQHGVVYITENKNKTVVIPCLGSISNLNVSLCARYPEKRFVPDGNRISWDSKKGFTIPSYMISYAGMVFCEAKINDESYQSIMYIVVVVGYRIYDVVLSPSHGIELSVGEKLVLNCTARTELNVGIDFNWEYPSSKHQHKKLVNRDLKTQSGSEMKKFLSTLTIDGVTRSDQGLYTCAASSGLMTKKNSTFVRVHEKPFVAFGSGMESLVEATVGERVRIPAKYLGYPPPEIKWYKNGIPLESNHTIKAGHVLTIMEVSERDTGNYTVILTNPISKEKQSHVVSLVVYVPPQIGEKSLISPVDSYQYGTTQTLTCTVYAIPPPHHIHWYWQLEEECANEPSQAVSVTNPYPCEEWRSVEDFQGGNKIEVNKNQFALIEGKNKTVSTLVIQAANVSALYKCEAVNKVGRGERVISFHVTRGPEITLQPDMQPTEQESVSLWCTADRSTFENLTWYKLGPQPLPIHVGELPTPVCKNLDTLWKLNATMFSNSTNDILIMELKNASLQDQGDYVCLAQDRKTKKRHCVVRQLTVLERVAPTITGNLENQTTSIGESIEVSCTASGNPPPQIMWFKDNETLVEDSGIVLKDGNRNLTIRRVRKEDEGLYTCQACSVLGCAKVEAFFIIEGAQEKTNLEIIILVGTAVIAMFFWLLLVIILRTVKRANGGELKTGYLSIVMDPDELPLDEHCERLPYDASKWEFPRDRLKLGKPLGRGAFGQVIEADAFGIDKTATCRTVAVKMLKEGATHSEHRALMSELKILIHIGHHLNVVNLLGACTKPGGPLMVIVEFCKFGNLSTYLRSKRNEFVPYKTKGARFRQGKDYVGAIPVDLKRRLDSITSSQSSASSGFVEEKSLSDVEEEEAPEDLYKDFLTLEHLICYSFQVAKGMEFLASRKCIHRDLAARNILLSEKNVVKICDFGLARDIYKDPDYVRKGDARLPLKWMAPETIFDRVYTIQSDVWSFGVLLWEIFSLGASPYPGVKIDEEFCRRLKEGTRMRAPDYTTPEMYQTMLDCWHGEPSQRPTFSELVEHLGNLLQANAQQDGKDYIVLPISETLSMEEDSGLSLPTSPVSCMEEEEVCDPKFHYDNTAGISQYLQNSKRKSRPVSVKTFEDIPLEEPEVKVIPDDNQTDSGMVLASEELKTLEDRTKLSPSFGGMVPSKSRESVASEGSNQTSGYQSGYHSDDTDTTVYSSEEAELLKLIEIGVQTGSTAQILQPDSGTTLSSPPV
# T3 sequence (P12931 whole entry, species assumed, the tested form may be a part): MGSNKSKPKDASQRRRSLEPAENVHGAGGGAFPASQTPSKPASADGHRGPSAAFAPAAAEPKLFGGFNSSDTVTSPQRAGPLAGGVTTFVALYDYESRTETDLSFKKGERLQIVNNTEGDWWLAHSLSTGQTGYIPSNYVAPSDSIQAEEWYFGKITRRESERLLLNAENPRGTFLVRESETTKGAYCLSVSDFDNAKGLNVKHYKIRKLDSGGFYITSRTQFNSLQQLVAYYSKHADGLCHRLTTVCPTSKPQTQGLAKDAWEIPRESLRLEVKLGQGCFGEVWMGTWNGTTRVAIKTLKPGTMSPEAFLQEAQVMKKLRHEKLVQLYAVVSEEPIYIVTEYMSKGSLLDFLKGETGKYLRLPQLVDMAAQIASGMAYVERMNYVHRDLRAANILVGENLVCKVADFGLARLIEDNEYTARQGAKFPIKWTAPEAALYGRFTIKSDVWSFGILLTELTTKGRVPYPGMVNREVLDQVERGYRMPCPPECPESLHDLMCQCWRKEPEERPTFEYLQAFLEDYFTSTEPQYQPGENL
# T4 sequence (P06241 whole entry, species assumed, the tested form may be a part): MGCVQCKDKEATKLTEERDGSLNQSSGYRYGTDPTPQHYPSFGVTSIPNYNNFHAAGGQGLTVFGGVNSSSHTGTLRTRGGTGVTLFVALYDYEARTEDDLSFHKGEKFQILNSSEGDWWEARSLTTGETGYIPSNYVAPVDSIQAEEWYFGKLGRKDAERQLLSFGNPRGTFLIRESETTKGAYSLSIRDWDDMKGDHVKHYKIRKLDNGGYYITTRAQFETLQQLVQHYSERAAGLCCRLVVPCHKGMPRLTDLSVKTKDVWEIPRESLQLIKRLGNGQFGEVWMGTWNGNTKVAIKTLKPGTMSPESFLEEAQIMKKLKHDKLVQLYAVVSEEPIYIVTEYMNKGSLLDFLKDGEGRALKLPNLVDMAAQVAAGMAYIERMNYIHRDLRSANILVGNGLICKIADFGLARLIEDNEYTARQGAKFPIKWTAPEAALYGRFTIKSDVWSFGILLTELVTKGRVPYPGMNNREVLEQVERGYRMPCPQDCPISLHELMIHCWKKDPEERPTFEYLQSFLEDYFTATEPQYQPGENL
# T2 sequence (P07948 whole entry, species assumed, the tested form may be a part): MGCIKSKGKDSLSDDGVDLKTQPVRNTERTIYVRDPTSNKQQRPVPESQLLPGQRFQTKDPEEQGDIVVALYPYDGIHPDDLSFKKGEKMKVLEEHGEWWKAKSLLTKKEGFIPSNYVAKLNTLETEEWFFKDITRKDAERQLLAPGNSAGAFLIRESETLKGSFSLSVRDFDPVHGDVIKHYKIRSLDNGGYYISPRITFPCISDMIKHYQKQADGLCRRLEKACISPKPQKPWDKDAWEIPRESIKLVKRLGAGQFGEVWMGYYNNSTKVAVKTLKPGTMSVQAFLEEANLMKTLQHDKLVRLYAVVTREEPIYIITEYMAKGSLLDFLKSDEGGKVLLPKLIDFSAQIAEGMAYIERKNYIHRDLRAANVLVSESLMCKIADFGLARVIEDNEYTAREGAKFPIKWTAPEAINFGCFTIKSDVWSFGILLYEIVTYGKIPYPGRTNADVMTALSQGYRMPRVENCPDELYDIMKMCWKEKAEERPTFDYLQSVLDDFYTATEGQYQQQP
SMILES,IC50 (Lck),IC50 (Lyn),IC50 (Src),IC50 (Fyn),IC50 (Zap-70),IC50 (Itk),IC50 (Kdr),IC50 (c-Met),IC50 (IGFR-1),IC50 (PDGFRB),IC50 (ErbB4),IC50 (FGFR1)
NC(=O)c1cccc(Nc2ncnc(-n3c(N)nc4ccccc43)n2)c1 [Compound 395],6.93 to 10.1 µM,10.1 to 13 µM,10.1 to 13 µM,6.93 to 10.1 µM,> 13 µM,1.15 to 6.93 µM,< 1.15 µM,1.15 to 6.93 µM,1.15 to 6.93 µM,1.15 to 6.93 µM,> 13 µM,< 1.15 µM
COc1cc(Nc2ncnc(Nc3cc(-c4ccccc4)nn3C)n2)cc(OC)c1OC [Compound 394],0.923 to 5.54 µM,< 0.923 µM,0.923 to 5.54 µM,0.923 to 5.54 µM,> 10.4 µM,> 10.4 µM,< 0.923 µM,> 10.4 µM,0.923 to 5.54 µM,0.923 to 5.54 µM,> 10.4 µM,0.923 to 5.54 µM
COc1cc(Nc2ncnc(-n3cc(CC(N)=O)c4ccccc43)n2)cc(OC)c1OC [Compound 353],8.06 to 10.4 µM,> 10.4 µM,> 10.4 µM,8.06 to 10.4 µM,> 10.4 µM,0.921 to 5.52 µM,< 0.921 µM,> 10.4 µM,> 10.4 µM,< 0.921 µM,> 10.4 µM,0.921 to 5.52 µM
COc1cc(Nc2ncnc(-n3c(Cl)nc4ccccc43)n2)cc(OC)c1OC [Compound 378],5.81 to 8.48 µM,0.969 to 5.81 µM,5.81 to 8.48 µM,5.81 to 8.48 µM,> 10.9 µM,> 10.9 µM,< 0.969 µM,0.969 to 5.81 µM,0.969 to 5.81 µM,0.969 to 5.81 µM,> 10.9 µM,< 0.969 µM
COc1cc(Nc2ncnc(-n3c(N)nc4ccccc43)n2)cc(OC)c1OC [Compound 289],< 1.02 µM,6.1 to 8.9 µM,1.02 to 6.1 µM,1.02 to 6.1 µM,> 11.4 µM,1.02 to 6.1 µM,< 1.02 µM,1.02 to 6.1 µM,< 1.02 µM,< 1.02 µM,> 11.4 µM,< 1.02 µM
COc1cc(Nc2ncnc(Nc3cccc(C)c3)n2)cc(OC)c1OC [Compound 64],1.09 to 6.53 µM,< 1.09 µM,< 1.09 µM,1.09 to 6.53 µM,9.53 to 12.2 µM,> 12.2 µM,1.09 to 6.53 µM,6.53 to 9.53 µM,< 1.09 µM,9.53 to 12.2 µM,> 12.2 µM,> 12.2 µM
COc1cc(Nc2ncnc(Nc3cc(-c4ccco4)n[nH]3)n2)cc(OC)c1 [Compound 365],1.05 to 6.33 µM,< 1.05 µM,1.05 to 6.33 µM,1.05 to 6.33 µM,1.05 to 6.33 µM,1.05 to 6.33 µM,< 1.05 µM,< 1.05 µM,< 1.05 µM,6.33 to 9.23 µM,6.33 to 9.23 µM,1.05 to 6.33 µM
COc1cc(Nc2ncnc(Nc3cccc4cccnc34)n2)cc(OC)c1OC [Compound 97],8.65 to 11.1 µM,0.989 to 5.93 µM,> 11.1 µM,5.93 to 8.65 µM,> 11.1 µM,> 11.1 µM,< 0.989 µM,> 11.1 µM,> 11.1 µM,< 0.989 µM,> 11.1 µM,5.93 to 8.65 µM
